Source: patent publication EP0063238A1, “An efficiency-improving agent for feed and a preventive and treating agent for coccidiosis” (KAKEN PHARMACEUTICAL CO., LTD., priority 1981, dated 1982)

Columns and labels:
[1] = Feed efficiency test on swine; assay type: in vivo, swine (landrace); details: for The rate of feed requirement / The average increase in the body weight during the test period / The average ingested amount of feed during the test period / The improved ratio of the rate of feed requirement: 12 weeks; for The average increase in the body weight during the test period / The average ingested amount of feed during the test period: young pigs; for The improved ratio of the rate of feed requirement: versus no addition; for The total number of days of diarrheal stool in each group / The total number of days during the test period in each group: 6 pigs, period of 4 weeks
Procedure: Feed efficiency test on swine
Method: • Thirty young pigs were divided into 5 groups of 6 each in such a way that the average body weight is the same in each group. To the basal feed were added 0, 25, and 50 ppm each of 5057A and 5057B. The resulting basal feeds were administered over the period of 12 weeks and the body weight and the ingested amount of the feeds were measured. The total number of days that the pigs suffered from diarrhea during the period of 4 weeks was counted.

[2] = Feed efficiency test on a ruminant; assay type: in vivo, Cattle (Holstein); details: 240 days; for The average increase in the body weight during the test period: castrated Holstein oxen; for The improved ratio of the rate of concentrated feed requirement: versus no addition
Procedure: Feed efficiency test on a ruminant Cattle tested: Holstein
Basal feed: • Concentrated feed: [formula]
(§1) Method: • Twenty five castrated Holstein oxen 9 months of age were divided into 5 groups of 5 each in such a way that the average body weight is almost the same in each group. Concentrated basal feeds to which 0, 10, and 20 ppm each of 5057A and 5057B had been added were each administered over the period of 240 days. As a crude feed, 1 kg per animal of straw of rice plants were administered.

[3] = Feed efficiency test on domestic fowls; assay type: in vivo; details: 70 days; for The average increase in the body weight during the test period / The average ingested amount of feed during the test period: chickens; for The rate of feed requirement: ingested feed / body weight increase; for The improved ratio of the rate of feed requirement: versus no addition
Procedure: Feed efficiency test on domestic fowls
Domestic fowls tested: species used exclusively for broiler (Aber Acres species) Basal feed:
Method: • Fifty newborn chickens were divided into 5 groups of 10 each in such a way that the average body weight is the same in each group. Premixes of 5057A and 5057B were added to the foregoing basal feed so that the contents of 5057A and 5057B are .40 ppm and 80 ppm, respectively. This feed was administered to the animals over the period of 70 days, and the body weight and the ingested amount of the feed were measured.

Acute toxicity test = details: mouse, in vivo, mice
Procedure: An acute toxicity test was carried out with mice. As a result, the LD50 value of the 5057A and 5057B substances is 50 mg/kg i.p. and 50 mg/kg or more p.o. [drawing 14] [drawing 15]

Eimeria tenellum = experiment: Preventive and treating activity against coccidiosis in a domestic fowl; assay type: in vivo; details: for Relation rate of the increase in the body weight: noninfection control = 100; for OPG: number of oocysts in 1 g of stool, 7 days after the inoculation; for Death rate: white leghorn chickens inoculated p.o. with oocysts; for preventive and treating activity against coccidiosis: conclusion in text from Table 5
Procedure: The preventive and treating activity against coccidiosis in a domestic fowl Domestic fowls tested: white leghorns Basal feed:
Method: • Fifty male white leghorn chickensl4 days of age were divided into 5 groups of 10 each. To the basal feed were added 50 and 100 ppm each of 5057A and 5057B. Infection with coccidiosis was done by inoculating […] per chicken of spore-forming oocysts of Eimeria tenellum directly p.o. into the crop of the chickens.
Groupsl - 4 were reared with the feeds containing predetermined concentrations of the 5057 substances, starting from 1 day before the inoculation with oocysts. Group 5 is an infection control that was inoculated with oocysts and reared with the basal feed containing no agents tested and Group 6 is a noninfection control. After 7 days after the inoculation with oocysts, the number of oocysts (OPG) in 1 g of stool was counted.

[4] = Propionic acid/acetic acid ratio in gastric juice from the rumen of the oxen tested; assay type: in vivo, Cattle (Holstein); details: for The propionic acid concentration/The acetic acid concentration (the average value): rumen gastric juice; for ratio between propionic acid/acetic acid in the gastric juice in the rumen: as compared with the case of no addition
Procedure: as §1
The administration of the feeds to which the present substances had been added improved the utilization rate of the concentrated feed by 10 - 17% and the increased amount of the body weight by 3 - 8%. The gastric juice from the rumen of the oxen tested was collected and measured for the concentrations of acetic and propionic acids, thus the ratio between them being calculated.

[5] = 10 ppm, 1 day after the administration
[6] = 10 ppm, 21 days after the administration
[7] = 10 ppm, 56 days after the administration
[8] = 20 ppm, 1 day after the administration
[9] = 20 ppm, 21 days after the administration
[10] = 20 ppm, 56 days after the administration

Structure (SMILES): CCC(C(=O)C(C)C(O)C(C)C1OC(O)(C(C)C(=O)O)C(C)CC1C)C1OC(C)(C2(O)OC(CC)(C(C)O)CC2C)CC1C (stereo not drawn) [5057A]
- The rate of feed requirement ([1]; 25 ppm in feed): 2.353
- The average increase in the body weight during the test period ([1]; 25 ppm in feed): 45.35 kg
- The average ingested amount of feed during the test period ([1]; 25 ppm in feed): 106.7 kg
- The improved ratio of the rate of feed requirement ([1]; 25 ppm in feed): 4.3%
- The total number of days of diarrheal stool in each group / The total number of days during the test period in each group ([1]; 25 ppm in feed): 21/168
- The rate of feed requirement ([1]; 50 ppm in feed): 2.287
- The average increase in the body weight during the test period ([1]; 50 ppm in feed): 50.93 kg
- The average ingested amount of feed during the test period ([1]; 50 ppm in feed): 116.5 kg
- The improved ratio of the rate of feed requirement ([1]; 50 ppm in feed): 7.0%
- The total number of days of diarrheal stool in each group / The total number of days during the test period in each group ([1]; 50 ppm in feed): 11/168
- The average ingested amount of concentrated feed during the test period ([2]; 10 ppm in concentrated feed): 2413 kg
- The rate of concentrated feed requirement ([2]; 10 ppm in concentrated feed): 8.904
- The average increase in the body weight during the test period ([2]; 10 ppm in concentrated feed): 271 kg
- The improved ratio of the rate of concentrated feed requirement ([2]; 10 ppm in concentrated feed): 10.2%
- The average ingested amount of concentrated feed during the test period ([2]; 20 ppm in concentrated feed): 2365 kg
- The rate of concentrated feed requirement ([2]; 20 ppm in concentrated feed): 8.446
- The average increase in the body weight during the test period ([2]; 20 ppm in concentrated feed): 280 kg
- The improved ratio of the rate of concentrated feed requirement ([2]; 20 ppm in concentrated feed): 14.8%
- The average increase in the body weight during the test period ([3]; 40 ppm in feed): 2.54 kg
- The average ingested amount of feed during the test period ([3]; 40 ppm in feed): 5.59 kg
- The rate of feed requirement ([3]; 40 ppm in feed): 2.201
- The improved ratio of the rate of feed requirement ([3]; 40 ppm in feed): 4.3%
- The average increase in the body weight during the test period ([3]; 80 ppm in feed): 2.55 kg
- The average ingested amount of feed during the test period ([3]; 80 ppm in feed): 5.63 kg
- The rate of feed requirement ([3]; 80 ppm in feed): 2.218
- The improved ratio of the rate of feed requirement ([3]; 80 ppm in feed): 4.0%
- LD50 (Acute toxicity test; ip): 50 mg/kg
- LD50 (Acute toxicity test; po): ≥ 50 mg/kg
- Relation rate of the increase in the body weight (Eimeria tenellum; 50 ppm in feed): 104%
- OPG (Eimeria tenellum; 50 ppm in feed): 0.01 x 10^4
- Death rate (Eimeria tenellum; 50 ppm in feed): 0%
- Relation rate of the increase in the body weight (Eimeria tenellum; 100 ppm in feed): 103%
- OPG (Eimeria tenellum; 100 ppm in feed): 0 x 10^4
- Death rate (Eimeria tenellum; 100 ppm in feed): 0%
- preventive and treating activity against coccidiosis (Eimeria tenellum): have a preventive and treating activity against coccidiosis
- The propionic acid concentration/The acetic acid concentration (the average value) [4, 5]: 0.80
- The propionic acid concentration/The acetic acid concentration (the average value) [4, 6]: 0.73
- The propionic acid concentration/The acetic acid concentration (the average value) [4, 7]: 0.78
- The propionic acid concentration/The acetic acid concentration (the average value) [4, 8]: 0.83
- The propionic acid concentration/The acetic acid concentration (the average value) [4, 9]: 0.96
- The propionic acid concentration/The acetic acid concentration (the average value) [4, 10]: 0.86
- ratio between propionic acid/acetic acid in the gastric juice in the rumen [4]: increases

Structure (SMILES): CCC(C(=O)C(C)C(O)C(C)C1OC(O)(C(C)C(=O)O)C(C)CC1C)C1OC(C)(C2(O)OC(CC)(C(O)CC)CC2C)CC1C (stereo not drawn) [5057B]
- The rate of feed requirement ([1]; 25 ppm in feed): 2.348
- The average increase in the body weight during the test period ([1]; 25 ppm in feed): 47.62 kg
- The average ingested amount of feed during the test period ([1]; 25 ppm in feed): 111.8 kg
- The improved ratio of the rate of feed requirement ([1]; 25 ppm in feed): 4.6%
- The total number of days of diarrheal stool in each group / The total number of days during the test period in each group ([1]; 25 ppm in feed): 18/168
- The rate of feed requirement ([1]; 50 ppm in feed): 2.263
- The average increase in the body weight during the test period ([1]; 50 ppm in feed): 51.26 kg
- The average ingested amount of feed during the test period ([1]; 50 ppm in feed): 116.0 kg
- The improved ratio of the rate of feed requirement ([1]; 50 ppm in feed): 8.0%
- The total number of days of diarrheal stool in each group / The total number of days during the test period in each group ([1]; 50 ppm in feed): 6/168
- The average ingested amount of concentrated feed during the test period ([2]; 10 ppm in concentrated feed): 2406 kg
- The rate of concentrated feed requirement ([2]; 10 ppm in concentrated feed): 8.813
- The average increase in the body weight during the test period ([2]; 10 ppm in concentrated feed): 273 kg
- The improved ratio of the rate of concentrated feed requirement ([2]; 10 ppm in concentrated feed): 11.1%
- The average ingested amount of concentrated feed during the test period ([2]; 20 ppm in concentrated feed): 2354 kg
- The rate of concentrated feed requirement ([2]; 20 ppm in concentrated feed): 8.289
- The average increase in the body weight during the test period ([2]; 20 ppm in concentrated feed): 284 kg
- The improved ratio of the rate of concentrated feed requirement ([2]; 20 ppm in concentrated feed): 16.4%
- The average increase in the body weight during the test period ([3]; 40 ppm in feed): 2.67 kg
- The average ingested amount of feed during the test period ([3]; 40 ppm in feed): 5.74 kg
- The rate of feed requirement ([3]; 40 ppm in feed): 2.150
- The improved ratio of the rate of feed requirement ([3]; 40 ppm in feed): 6.6%
- The average increase in the body weight during the test period ([3]; 80 ppm in feed): 2.62 kg
- The average ingested amount of feed during the test period ([3]; 80 ppm in feed): 5.67 kg
- The rate of feed requirement ([3]; 80 ppm in feed): 2.164
- The improved ratio of the rate of feed requirement ([3]; 80 ppm in feed): 6.0%
- LD50 (Acute toxicity test; ip): 50 mg/kg
- LD50 (Acute toxicity test; po): ≥ 50 mg/kg
- Relation rate of the increase in the body weight (Eimeria tenellum; 50 ppm in feed): 106%
- OPG (Eimeria tenellum; 50 ppm in feed): 0 x 10^4
- Death rate (Eimeria tenellum; 50 ppm in feed): 0%
- Relation rate of the increase in the body weight (Eimeria tenellum; 100 ppm in feed): 106%
- OPG (Eimeria tenellum; 100 ppm in feed): 0 x 10^4
- Death rate (Eimeria tenellum; 100 ppm in feed): 0%
- preventive and treating activity against coccidiosis (Eimeria tenellum): have a preventive and treating activity against coccidiosis
- The propionic acid concentration/The acetic acid concentration (the average value) [4, 5]: 0.79
- The propionic acid concentration/The acetic acid concentration (the average value) [4, 6]: 0.76
- The propionic acid concentration/The acetic acid concentration (the average value) [4, 7]: 0.77
- The propionic acid concentration/The acetic acid concentration (the average value) [4, 8]: 0.83
- The propionic acid concentration/The acetic acid concentration (the average value) [4, 9]: 1.00
- The propionic acid concentration/The acetic acid concentration (the average value) [4, 10]: 0.93
- ratio between propionic acid/acetic acid in the gastric juice in the rumen [4]: increases
